Laboratory results: DBAASP
Converted amounts (≈) assume the structure as drawn. Each block holds one compound with its values, some of them ahead of it.

Legend:
Experiment in all cases: ≥ marks a high value that may be exact or a test limit, other limits are often not marked, values filed in µg/mL are converted to µM
[1] = tested on: Listeria grayi DSM 20601
[2] = tested on: Staphylococcus epidermidis DSM 3269
[3] = tested on: Escherichia coli IS37#
[4] = tested on: Pseudomonas aeruginosa CMCCB 1010
[5] = tested on: Enterococcus faecalis ATCC 29212
[6] = tested on: Candida albicans ATCC 90028
[7] = tested on: Klebsiella pneumoniae IS59#
[8] = tested on: Candida albicans ATCC 2002
[9] = tested on: Pseudomonas aeruginosa ATCC 27853
[10] = tested on: Candida parapsilosis ATCC 22019
[11] = tested on: Escherichia coli IS117#
[12] = tested on: Escherichia coli ATCC 25922
[13] = tested on: Pseudomonas aeruginosa IS350#
[14] = tested on: Shigella dysenteriae
[15] = tested on: Klebsiella pneumoniae ATCC 700603
[16] = tested on: Staphylococcus aureus ATCC 25923
[17] = tested on: Enterobacter cloacae ATCC 13047
[18] = tested on: Mycobacterium tuberculosis H37Rv
[19] = tested on: Candida glabrata
[20] = tested on: Mycobacterium tuberculosis
[21] = tested on: Pseudomonas aeruginosa ATCC 9027
[22] = tested on: Candida albicans
[23] = tested on: Streptococcus agalactiae
[24] = tested on: Salmonella enterica subsp. enterica serovar Typhimurium ATCC 14028
[25] = tested on: Staphylococcus aureus ATCC 29313
[26] = tested on: Acinetobacter baumannii AB2
[27] = tested on: Pseudomonas aeruginosa 1
[28] = tested on: Acinetobacter baumannii AB3
[29] = tested on: Pseudomonas aeruginosa 5
[30] = tested on: Acinetobacter baumannii AB1
[31] = tested on: Acinetobacter baumannii ATCC 19606
[32] = tested on: Staphylococcus aureus USA 100
[33] = tested on: Carnobacterium maltaromaticum UI49
[34] = tested on: Latilactobacillus sakei NCDO 2714
[35] = tested on: Lacticaseibacillus casei NCDO 2713
[36] = tested on: Lactiplantibacillus plantarum 965
[37] = tested on: Pediococcus pentosaceus Pac1.0
[38] = tested on: Pediococcus pentosaceus NCDO 990
[39] = tested on: Latilactobacillus sakei 706
[40] = tested on: Lacticaseibacillus casei subsp. casei NCDO 161
[41] = tested on: Lactiplantibacillus plantarum UI50
[42] = tested on: Weissella viridescens NCDO 1655

MIC [1]: 30 µM (≈ 48.1 µg/mL)
MIC [2]: 30 µM (≈ 48.1 µg/mL)
SMILES: CC[C@H](C)[C@H](NC(=O)CNC(=O)[C@H](CO)NC(=O)[C@@H](N)CS)C(=O)N[C@H](C(=O)N[C@@H](CCCCN)C(=O)N[C@@H](CCC(N)=O)C(=O)N[C@H](C(=O)N[C@@H](CS)C(=O)N[C@H](C(=O)N[C@@H](CS)C(=O)N[C@@H](Cc1ccc(O)cc1)C(=O)N[C@@H](CCCN=C(N)N)C(=O)N[C@@H](CCCCN)C(=O)O)[C@@H](C)O)[C@@H](C)O)[C@@H](C)CC [CSGIIKQTCTCYRK]

MIC [3]: 20 µM (≈ 50 µg/mL)
MIC [4]: 4 µM (≈ 9.99 µg/mL)
MIC [5]: 4 µM (≈ 9.99 µg/mL)
MIC [6]: 4 µM (≈ 9.99 µg/mL)
MIC [7]: 2 µM (≈ 5 µg/mL)
MIC [8]: 0.2 µM (≈ 0.5 µg/mL)
MIC [9]: 2 µM (≈ 5 µg/mL)
MIC [10]: 2 µM (≈ 5 µg/mL)
MIC [11]: 20 µM (≈ 50 µg/mL)
MIC [12]: 0.999 µM (≈ 2.5 µg/mL)
MIC [13]: 4 µM (≈ 9.99 µg/mL)
MIC [14]: 4 µM (≈ 9.99 µg/mL)
MIC [15]: 4 µM (≈ 9.99 µg/mL)
MIC [16]: 0.999 µM (≈ 2.5 µg/mL)
MIC [17]: 2 µM (≈ 5 µg/mL)
SMILES: CC[C@H](C)[C@@H]1NC(=O)[C@H](C)NC(=O)[C@@H](NC(=O)[C@H](Cc2ccccc2)NC(=O)[C@@H](NC(=O)[C@H](C)NC(=O)[C@@H]2CCCN2C(=O)CNC(=O)[C@@H](NC(=O)[C@H](CCCCN)NC(=O)[C@H](C)NC(=O)[C@H](C)NC(=O)[C@@H](NC(=O)[C@H](CCCN=C(N)N)NC(=O)[C@H](CC(C)C)NC(=O)[C@@H](NC(=O)[C@H](C)NC(=O)[C@@H]2CCCN2C(=O)[C@H](CC(C)C)NC(=O)[C@@H](N)Cc2ccccc2)C(C)C)C(C)C)C(C)C)C(C)C)CSSC[C@@H](C(=O)O)NC(=O)[C@H](CCCCN)NC(=O)[C@H](CCC(N)=O)NC(=O)[C@H]([C@@H](C)O)NC1=O [FLPAVLRVAAKVGPAVFCAITQKC]

MIC [18]: 13.6 µM (≈ 32.1 µg/mL)
MIC [19]: 25 µM (≈ 59.1 µg/mL)
MIC [12]: 24 µM (≈ 56.7 µg/mL)
MIC [20]: 8.5 µM (≈ 20.1 µg/mL)
MIC [21]: 5 µM (≈ 11.8 µg/mL)
MIC [22]: 3.12 µM (≈ 7.38 µg/mL)
MIC [16]: 5 µM (≈ 11.8 µg/mL)
MIC [23]: 10 µM (≈ 23.6 µg/mL)
SMILES: CC[C@H](C)[C@H](NC(=O)[C@H](CC(C)C)NC(=O)[C@H](CO)NC(=O)[C@@H]1CCCN1C(=O)[C@@H](NC(=O)[C@H](C)NC(=O)[C@H](CCCCN)NC(=O)[C@H](CCSC)NC(=O)[C@H](C)NC(=O)[C@H](CC(C)C)NC(=O)[C@H](CCCCN)NC(=O)CNC(=O)[C@H](CC(C)C)NC(=O)[C@H](Cc1ccccc1)NC(=O)CNC(=O)[C@H](Cc1c[nH]c2ccccc12)NC(=O)[C@@H](N)Cc1ccccc1)C(C)C)C(=O)NCC(=O)NCC(=O)N[C@@H](CC(N)=O)C(=O)N[C@@H](CCCCN)C(=O)N[C@@H](CCCCN)C(=O)O [FWGFLGKLAMKAVPSLIGGNKK]

MIC [24]: > 303 µM
MIC [12]: 303 µM (≈ 800 µg/mL)
MIC [15]: > 303 µM
SMILES: CC[C@H](C)[C@H](NC(=O)[C@H](CCCCN)NC(=O)CNC(=O)[C@H](CCSC)NC(=O)[C@H](C)NC(=O)[C@H](Cc1cnc[nH]1)NC(=O)[C@H](C)NC(=O)[C@@H](NC(=O)[C@H](CC(C)C)NC(=O)[C@H](CCC(N)=O)NC(=O)[C@H](CCCCN)NC(=O)CNC(=O)[C@H](C)NC(=O)[C@H](CC(=O)O)NC(=O)[C@H](CCCCN)NC(=O)[C@@H](NC(=O)[C@@H](NC(=O)[C@H](CC(=O)O)NC(=O)[C@H](Cc1ccccc1)NC(=O)[C@@H](NC(=O)CN)C(C)C)[C@@H](C)CC)[C@@H](C)CC)C(C)C)C(=O)N[C@@H](C)C(=O)N[C@@H](CCC(=O)O)C(=O)N[C@@H](CCCCN)C(=O)N[C@H](C(N)=O)C(C)C [GVFDIIKDAGKQLVAHAMGKIAEKV]
MIC [25]: ≥ 303 µM

MIC [26]: 10.3 µM (≈ 32 µg/mL)
MIC [27]: 2.58 µM (≈ 8 µg/mL)
MIC [9]: 2.58 µM (≈ 8 µg/mL)
MIC [28]: 5.17 µM (≈ 16 µg/mL)
MIC [29]: 5.17 µM (≈ 16 µg/mL)
MIC [30]: 2.58 µM (≈ 8 µg/mL)
MIC [31]: 1.29 µM (≈ 4 µg/mL)
SMILES: CC[C@H](C)[C@H](NC(=O)[C@H](CCCCN)NC(=O)[C@H](CCCCN)NC(=O)[C@H](Cc1ccc(O)cc1)NC(=O)[C@H](CCC(=O)O)NC(=O)[C@H](CCCN=C(N)N)NC(=O)[C@H](C)NC(=O)[C@@H](N)CC(C)C)C(=O)N[C@H](C(=O)N[C@@H](CCC(=O)O)C(=O)N[C@@H](CCCCN)C(=O)N[C@@H](CC(C)C)C(=O)N[C@@H](CCCCN)C(=O)N[C@@H](CCCN=C(N)N)C(=O)N[C@@H](Cc1c[nH]c2ccccc12)C(=O)N[C@@H](CC(C)C)C(=O)N[C@@H](CCCN=C(N)N)C(=O)N[C@@H](CCC(N)=O)C(=O)N[C@H](C(=O)N[C@@H](CC(C)C)C(=O)N[C@@H](CCCN=C(N)N)C(=O)N[C@H](C(=O)N[C@@H](CC(C)C)C(=O)N[C@@H](CCCN=C(N)N)C(=O)O)[C@@H](C)O)C(C)C)C(C)C [LAREYKKIVEKLKRWLRQVLRTLR]

MIC [32]: ≥ 100 µM
SMILES: NC(=O)[C@H](CCCN=C(N)N)NC(=O)[C@H](CO)NC(=O)[C@H](CCCN=C(N)N)NC(=O)[C@@H](N)CO [SRSR]

MIC [33]: 6 µM (≈ 15.7 µg/mL)
MIC [34]: 0.25 µM (≈ 0.653 µg/mL)
MIC [35]: 6 µM (≈ 15.7 µg/mL)
MIC [37]: 0.1 µM (≈ 0.261 µg/mL)
MIC [38]: 6 µM (≈ 15.7 µg/mL)
MIC [39]: 1 µM (≈ 2.61 µg/mL)
MIC [40]: 0.25 µM (≈ 0.653 µg/mL)
MIC [42]: 0.05 µM (≈ 0.131 µg/mL)
SMILES: CC[C@H](C)[C@H](NC(=O)[C@H](C)NC(=O)[C@@H](NC(=O)[C@H](C)NC(=O)CNC(=O)[C@H](CCSC)NC(=O)[C@H](CCC(N)=O)NC(=O)[C@H](CC(C)C)NC(=O)[C@H](CO)NC(=O)[C@@H](N)Cc1ccc(O)cc1)[C@@H](C)O)C(=O)N[C@@H](CCCCN)C(=O)N[C@@H](CCC(N)=O)C(=O)N[C@H](C(=O)N[C@@H](CCCCN)C(=O)N[C@@H](CCCCN)C(=O)N[C@@H](CC(C)C)C(=O)N[C@@H](Cc1ccccc1)C(=O)N[C@@H](CCCCN)C(=O)N[C@@H](CCCCN)C(=O)N[C@@H](Cc1c[nH]c2ccccc12)C(=O)NCC(=O)N[C@@H](Cc1c[nH]c2ccccc12)C(=O)O)C(C)C [YSLQMGATAIKQVKKLFKKWGW]
MIC [36]: 0.5 µM (≈ 1.31 µg/mL)
MIC [41]: 6 µM (≈ 15.7 µg/mL)
